These results are taken from patent US4593090A, “Novel nitrosourea compounds, method for preparing same, and pharmaceutical composition containing same” (Gogo Kimura, priority 1981, dated 1986).

One data set has as its system Leukemia L1210. Kind of data set: Activity against Leukemia L1210, intraperitoneal, increase in life span of mice. The format is in vivo, female mice (BDF1 family). Particulars: for ED (maximum ILS) / ED30: Mus musculus, L1210, ip; for ED (maximum ILS) / ED30 / O.D. (optimum dosage) / ILS30: ip once a day for 5 successive days; for ED (maximum ILS) / O.D. (optimum dosage): daily dosage giving maximum increase of life span; for ED (maximum ILS): read-out: O.D. (optimum dosage); for ED30 / ILS30: daily dosage increasing average survival days by 30%; for ED30: read-out: ILS30; for Survivors after 60 days / Max. ILS % / Therapeutic ratio TR: ip; for Survivors after 60 days: 6-membered group; for Max. ILS %: 60-day observation, versus control; for Therapeutic ratio TR: O.D./ILS30. The method, boiled down:
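Dosing started 24 h after ip implantation of 1×10^5 L1210 cells into groups of 6 female BDF1 mice, by ip or oral route daily for 5 consecutive days. Survival was followed for 60 days; increase in life span was scored against untreated mice, with therapeutic ratio from optimum dose over ILS30 dose.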

The nature of data set [1]: Acute toxicity (LD50, Behrens-Karber method). It is filed as in vivo, ICR mice. To be noted: ip, mortality during 30 days; for LD50 at 720 h: mouse, in vivo. The method, then:
Test compounds, dissolved or suspended in 0.5% aqueous CMC, were each intraperitoneally administered to ICR mice in a dose of 0.1 ml per 10 g body weight. LD50 (mg/kg) value of each test compound was calculated from the mortality of mice during 30 days by the Behrens-Karber method.

In general, LD50 refers to the dose expected to kill half of the subjects tested. In the case of `COCCCOC1OC(CO)C(O)C(N(CC(C)C)C(=O)N(CCCl)N=O)C1O` [Compound 77, 3-isobutyl-3-(3-methoxy-n-propyl α-D-glucopyranose-3-yl)-1-(2-chloroethyl)-1-nitrosourea], in the data set on Leukemia L1210, the ED (maximum ILS) worked out at 200 mg/kg, the ED30 stood at 5.08 mg/kg, the “Survivors after 60 days” value was 4/6 and the “Max. ILS %” value is more than 425%. For the same molecule, in the data set on Leukemia L1210, the “Therapeutic ratio TR” value came out at 39.4. Moreover, the LD50 at 720 h in data set [1] was found to be 685 mg/kg.
Take `CC(C)CO[C@H]1O[C@H](CO)[C@H](O)[C@H](N(CC(C)C)C(=O)N(CCCl)N=O)[C@H]1O` [Compound 125, 3-isobutyl-3-(isobutyl α-D-galactopyranose-3-yl)-1-(2-chloroethyl)-1-nitrosourea]: in the data set on Leukemia L1210, the ED (maximum ILS) is 250 mg/kg, the ED30 came out at 7.67 mg/kg, the “Survivors after 60 days” value is given as 3/6 and the “Max. ILS %” value was more than 350%. Further, the “Therapeutic ratio TR” value with Leukemia L1210 stood at 32.6. This molecule also showed an LD50 at 720 h in data set [1] of 780 mg/kg.
Consider `CC(C)CO[C@H]1O[C@H](CO)[C@H](O)[C@H](O)[C@H]1N(CC(C)C)C(=O)N(CCCl)N=O` [Compound 122, 3-isobutyl-3-(isobutyl α-D-galactopyranose-2-yl)-1-(2-chloroethyl)-1-nitrosourea], for which, in the data set with Leukemia L1210, the ED (maximum ILS) was determined as 200 mg/kg, the ED30 came to 6.85 mg/kg, the “Survivors after 60 days” value is recorded as 3/6 and the “Max. ILS %” value was more than 355%. Besides, in the data set on Leukemia L1210, the “Therapeutic ratio TR” value was 29.2. Also, in data set [1], the LD50 at 720 h is 715 mg/kg.
Turning to `CO[C@H]1O[C@H](CNC(=O)N(CCCl)N=O)[C@@H](O)[C@H](O)[C@H]1O` [Compound 6MCαGM, 3-(methyl α-D-glucopyranose-6-yl)-1-(2-chloroethyl)-1-nitrosourea, reference compound], in the data set on Leukemia L1210, the “O.D. (optimum dosage)” value stood at 29.1 mg/kg, the ILS30 amounted to 1.45 mg/kg, the “Survivors after 60 days” value is listed as 4/6 and the “Max. ILS %” value is more than 450%. Further, in the data set with Leukemia L1210, the “Therapeutic ratio TR” value came out at 20.1. In data set [1] (43200 min), this molecule returned an LD50 of 88 mg/kg.
As for `CCC(COC)O[C@H]1O[C@H](CN(CC(C)(C)C)C(=O)N(CCCl)N=O)[C@@H](O)[C@H](O)[C@H]1O` (stereo partly drawn) [Compound 196, 3-neopentyl-3-(1-methoxy-sec-butyl α-D-glucopyranose-6-yl)-1-(2-chloroethyl)-1-nitrosourea], in the data set with Leukemia L1210, the “O.D. (optimum dosage)” value is 160 mg/kg, the ILS30 stood at 2.52 mg/kg, the “Survivors after 60 days” value was 6/6 and the “Max. ILS %” value is on record as more than 700%. For the same molecule, in the data set on Leukemia L1210, the “Therapeutic ratio TR” value was determined as 63.4. For the same molecule, the LD50 in data set [1] (43200 min) came to 560 mg/kg.
Take `CC(C)COC1OC(CO)C(N(C(=O)N(CCCl)N=O)C(C)C)C(O)C1O` [Compound 92, 3-isopropyl-3-(isobutyl α-D-glucopyranose-4-yl)-1-(2-chloroethyl)-1-nitrosourea]: in the data set with Leukemia L1210, the ED (maximum ILS) was 100 mg/kg, the ED30 is 3.14 mg/kg, the “Survivors after 60 days” value is 3/6 and the “Max. ILS %” value is recorded as more than 360%. The “Therapeutic ratio TR” value in the data set on Leukemia L1210 was found to be 31.8. Also, the LD50 at 720 h in data set [1] was 335 mg/kg.
In the case of `COc1ccc(CO[C@H]2O[C@H](CN(C(=O)N(CCCl)N=O)C(C)(C)C)[C@@H](O)[C@H](O)[C@H]2O)cc1` [Compound 182, 3-tert-butyl-3-(p-methoxybenzyl α-D-glucopyranose-6-yl)-1-(2-chloroethyl)-1-nitrosourea], in the data set on Leukemia L1210, the ED (maximum ILS) was 140 mg/kg, the ED30 worked out at 3.49 mg/kg, the “Survivors after 60 days” value is on record as 5/6 and the “Max. ILS %” value was more than 620%. For the same molecule, the “Therapeutic ratio TR” value in the data set with Leukemia L1210 came out at 40.1. The same molecule displayed an LD50 at 720 h in data set [1] of 420 mg/kg.
Regarding `COc1ccc(CN(C[C@H]2O[C@H](OC3CCCCC3)[C@H](O)[C@@H](O)[C@@H]2O)C(=O)N(CCCl)N=O)cc1` [Compound 48, 3-(p-methoxybenzyl)-3-(cyclohexyl α-D-glucopyranose-6-yl)-1-(2-chloroethyl)-1-nitrosourea], in the data set with Leukemia L1210, the ED (maximum ILS) is 170 mg/kg, the ED30 was determined as 4.64 mg/kg, the “Survivors after 60 days” value is 4/6 and the “Max. ILS %” value is more than 445%. Besides, in the data set with Leukemia L1210, the “Therapeutic ratio TR” value amounted to 36.6. This molecule displayed an LD50 at 720 h in data set [1] of 530 mg/kg.
With `CCCO[C@H]1O[C@H](CN(CC(C)C)C(=O)N(CCCl)N=O)[C@@H](O)[C@H](O)[C@H]1O` [Compound 1, 3-isobutyl-3-(n-propyl α-D-glucopyranose-6-yl)-1-(2-chloroethyl)-1-nitrosourea], in the data set with Leukemia L1210, the ED (maximum ILS) was found to be 120 mg/kg, the ED30 is 2.96 mg/kg, the “Survivors after 60 days” value was 6/6 and the “Max. ILS %” value is on record as more than 700%. Also, the “Therapeutic ratio TR” value in the data set on Leukemia L1210 was 40.5. This molecule also showed an LD50 at 720 h in data set [1] of 340 mg/kg.
On to `CC(C)COC1OC(CO)C(N(CC2CC2)C(=O)N(CCCl)N=O)C(O)C1O` [Compound 95, 3-cyclopropylmethyl-3-(isobutyl α-D-glucopyranose-4-yl)-1-(2-chloroethyl)-1-nitrosourea], for which, in the data set with Leukemia L1210, the ED (maximum ILS) was 120 mg/kg, the ED30 came out at 3.82 mg/kg, the “Survivors after 60 days” value was 3/6 and the “Max. ILS %” value is listed as more than 360%. For the same molecule, in the data set on Leukemia L1210, the “Therapeutic ratio TR” value is 31.4. The LD50 at 720 h in data set [1] was found to be 400 mg/kg.
With `CCCCN(C[C@@H]1O[C@@H](OCC2CC2)[C@@H](O)[C@H](O)[C@@H]1O)C(=O)N(CCCl)N=O` [Compound 134, 3-n-butyl-3-(cyclopropylmethyl α-L-galactopyranose-6-yl)-1-(2-chloroethyl)-1-nitrosourea], in the data set on Leukemia L1210, the ED (maximum ILS) came out at 150 mg/kg, the ED30 is 3.73 mg/kg, the “Survivors after 60 days” value is reported as 3/6 and the “Max. ILS %” value is more than 365%. In addition, in the data set with Leukemia L1210, the “Therapeutic ratio TR” value came out at 40.2. Moreover, in data set [1], the LD50 at 720 h came out at 490 mg/kg.
In the case of `CCCCO[C@H]1O[C@H](CO)[C@@H](O)[C@H](O)[C@H]1N(CCCC)C(=O)N(CCCl)N=O` [Compound 55, 3-n-butyl-3-(n-butyl α-D-glucopyranose-2-yl)-1-(2-chloroethyl)-1-nitrosourea], in the data set on Leukemia L1210, the ED (maximum ILS) stood at 180 mg/kg, the ED30 is 6.05 mg/kg, the “Survivors after 60 days” value is 3/6 and the “Max. ILS %” value is reported as more than 350%. Besides, in the data set with Leukemia L1210, the “Therapeutic ratio TR” value was found to be 29.8. The molecule also showed a 50% lethal dose (LD50) at 720 h in data set [1] of 465 mg/kg.
Consider “3-(2-methoxyethyl)-3-(1-methoxyethyl α-D-glucopyranose-3-yl)-1-(2-chloroethyl)-1-nitrosourea [Compound 80]”, for which, in the data set on Leukemia L1210, the “O.D. (optimum dosage)” value is given as 200 mg/kg, the ILS30 came out at 4.17 mg/kg, the “Survivors after 60 days” value is reported as 5/6 and the “Max. ILS %” value is more than 625%. Moreover, the “Therapeutic ratio TR” value with Leukemia L1210 came to 48.0. Besides, the 50% lethal dose (LD50) in data set [1] came out at 640 mg/kg.
As for `O=NN(CCCl)C(=O)N(CC1CC1)C[C@H]1O[C@H](OC2CCCCC2)[C@H](O)[C@@H](O)[C@@H]1O` [Compound 44, 3-cyclopropylmethyl-3-(cyclohexyl α-D-glucopyranose-6-yl)-1-(2-chloroethyl)-1-nitrosourea], in the data set with Leukemia L1210, the ED (maximum ILS) turned out to be 150 mg/kg, the ED30 was found to be 3.32 mg/kg, the “Survivors after 60 days” value was 6/6 and the “Max. ILS %” value is listed as more than 700%. Also, in the data set on Leukemia L1210, the “Therapeutic ratio TR” value turned out to be 45.2. For the same molecule, the LD50 at 720 h in data set [1] came to 435 mg/kg.
For `CCCCO[C@H]1O[C@H](CO)[C@H](O)[C@H](O)[C@H]1N(C)C(=O)N(CCCl)N=O` [Compound 118, 3-methyl-3-(n-butyl α-D-galactopyranose-2-yl)-1-(2-chloroethyl)-1-nitrosourea], in the data set with Leukemia L1210, the ED (maximum ILS) stood at 130 mg/kg, the ED30 was 4.45 mg/kg, the “Survivors after 60 days” value is on record as 3/6 and the “Max. ILS %” value was more than 350%. Also, the “Therapeutic ratio TR” value in the data set with Leukemia L1210 turned out to be 29.2. Also, in data set [1], the LD50 at 720 h came to 400 mg/kg.
On to `COCC(C)N(C[C@H]1O[C@H](OCCc2ccccc2)[C@@H](O)[C@H](O)[C@@H]1O)C(=O)N(CCCl)N=O` (stereo partly drawn) [Compound 141, 3-(1-methyl-2-methoxyethyl)-3-(phenyl-β-ethyl α-D-altropyranose-6-yl)-1-(2-chloroethyl)-1-nitrosourea], for which, in the data set with Leukemia L1210, the ED (maximum ILS) turned out to be 160 mg/kg, the ED30 turned out to be 4.4 mg/kg, the “Survivors after 60 days” value is recorded as 3/6 and the “Max. ILS %” value is reported as more than 360%. Further, the “Therapeutic ratio TR” value in the data set with Leukemia L1210 came out at 36.4. In data set [1], this molecule came in with an LD50 at 720 h of 480 mg/kg.
As for `CCOCCCOC1OC(CO)C(O)C(N(CC(C)C)C(=O)N(CCCl)N=O)C1O` [Compound 78, 3-isobutyl-3-(3-ethoxy-n-propyl α-D-glucopyranose-3-yl)-1-(2-chloroethyl)-1-nitrosourea], in the data set with Leukemia L1210, the ED (maximum ILS) came to 200 mg/kg, the ED30 turned out to be 5.33 mg/kg, the “Survivors after 60 days” value is listed as 3/6 and the “Max. ILS %” value is more than 355%. Moreover, the “Therapeutic ratio TR” value in the data set with Leukemia L1210 stood at 37.5. The molecule also came in with an LD50 at 720 h in data set [1] of 675 mg/kg.
Consider `CCCCCCN(C[C@H]1O[C@H](OC2CCCCC2)[C@H](O)[C@@H](O)[C@H]1O)C(=O)N(CCCl)N=O` [Compound 100, 3-n-hexyl-3-(cyclohexyl α-D-galactopyranose-6-yl)-1-(2-chloroethyl)-1-nitrosourea], for which, in the data set with Leukemia L1210, the ED (maximum ILS) came out at 200 mg/kg, the ED30 is 6.41 mg/kg, the “Survivors after 60 days” value is recorded as 3/6 and the “Max. ILS %” value is recorded as more than 330%. Besides, in the data set with Leukemia L1210, the “Therapeutic ratio TR” value worked out at 31.2. Moreover, the LD50 at 720 h in data set [1] was 580 mg/kg.
